US20240300943A1, “NOVEL SALTS OF HETEROCYCLIC COMPOUND AS PROTEIN KINASE INHIBITOR AND USES THEREOF” (HK INNO.N CORPORATION, priority 2021, published 2024)

What was measured:
Type in all cases: physicochemical
[1] = Physical stability evaluation under stress conditions
Protocol: In order to evaluate physical stability, samples were packaged in the form of ((LPDE+N2)+silica gel 1 g+LDPE)+Al-Bag, and stored under stress conditions (60° C.±2° C./80% RH±5%) for 2/4 weeks before evaluation.
In table 2, initial is a result measured after preparation of salts, and S2W and S4W are results measured after two and four weeks while being exposed to stress conditions, respectively.

[2] = Hygroscopicity evaluation; details: for Individual related material: in %
Excerpt: Samples were placed in a glass desiccator in which relative humidity was adjusted to 33%, 53%, 75%, and 93%, and then stored for two and four weeks to be evaluated.

[3] = Measurement of water solubility; details: saturated solution shaken at room temperature for 24 hours
Protocol: A liquid phase was taken out of the solution and filtered using a 0.22 μm PVDF filter. The filtered liquid phase was diluted 10-fold for LC analysis.
LC analysis was performed by the following method.

[4] = Photostability evaluation
Excerpt: Samples were packaged in LPDE bag, and stored under visible (1.2M Lux-h), UV (200 W-h/m2) and UV+visible conditions, respectively, and then evaluated.

## C[C@@H]1CN(C(=O)CC#N)CC=C1c1cc(NC(=O)C2CC2)nc2[nH]ccc12 [Example 1, (S)—N-(4-(1-(2-cyanoacetyl)-3-methyl-1,2,3,6-tetrahydropyridin-4-yl)-1H-pyrrolo[2,3-b]pyridin-6-yl)cyclopropanecarboxamide]
[1]; Initial
  C.I quantitative: 9.2%
  Content (anhydride, as anhydride): 97.9%
  Moisture: 3.33%
  Purity: Individual related material: 0.13%
  Purity: Total related material: 0.66%
[1]; S2W: 2 weeks at 60° C./80% RH
  C.I quantitative: 9.1%
  Content (anhydride, as anhydride): 98.0%
  Purity: Individual related material: 0.13%
  Purity: Total related material: 1.08%
[1]; S4W: 4 weeks at 60° C./80% RH
  C.I quantitative: 9.1%
  Content (anhydride, as anhydride): 98.6%
  Purity: Individual related material: 0.34%
  Purity: Total related material: 1.28%
[2]; Initial
  Total related material: 0.66%
  Water: 3.33%
  Individual related material: 0.13
[2]; relative humidity 33%, 2 W
  Total related material: 0.68%
  Water: 5.22%
  Individual related material: 0.12
[2]; relative humidity 33%, 4 W
  Total related material: 0.62%
  Water: 5.32%
  Individual related material: 0.11
[2]; relative humidity 53%, 2 W
  Total related material: 0.78%
  Water: 5.21%
  Individual related material: 0.12
[2]; relative humidity 53%, 4 W
  Total related material: 0.78%
  Water: 5.38%
  Individual related material: 0.12
[2]; relative humidity 75%, 2 W
  Total related material: 0.69%
  Water: 5.24%
  Individual related material: 0.12
[2]; relative humidity 75%, 4 W
  Total related material: 0.68%
  Water: 5.41%
  Individual related material: 0.11
[2]; relative humidity 93%, 2 W
  Total related material: 0.89%
  Water: 5.37%
  Individual related material: 0.12
[2]; relative humidity 93%, 4 W
  Total related material: 0.94%
  Water: 5.43%
  Individual related material: 0.13
[3]
  Water solubility: 5900 µg/mL
[4]; Initial
  Individual related material: 0.13%
  Total related material: 0.66%
[4]; Solid, Control
  Individual related material: 0.11%
  Total related material: 0.55%
[4]; Solid, UV (200 W-h/m2)
  Individual related material: 0.36%
  Total related material: 2.31%
[4]; Solid, UV + Vis
  Individual related material: 0.81%
  Total related material: 4.74%
[4]; Solid, UV + Vis Control
  Individual related material: 0.12%
  Total related material: 0.65%
[4]; Solid, Vis (1.2M Lux-h)
  Individual related material: 0.66%
  Total related material: 3.83%

## C[C@@H]1CN(C(=O)CC#N)CC=C1c1cc(NC(=O)C2CC2)nc2[nH]ccc12 [Example 2, (S)—N-(4-(1-(2-cyanoacetyl)-3-methyl-1,2,3,6-tetrahydropyridin-4-yl)-1H-pyrrolo[2,3-b]pyridin-6-yl)cyclopropanecarboxamide]
[1]; Initial
  C.I quantitative: 18.1%
  Content (anhydride, as anhydride): 100.7%
  Moisture: 3.93%
  Purity: Individual related material: 0.12%
  Purity: Total related material: 0.56%
[1]; S2W: 2 weeks at 60° C./80% RH
  C.I quantitative: 17.8%
  Content (anhydride, as anhydride): 101.4%
  Moisture: 3.93%
  Purity: Individual related material: 0.11%
  Purity: Total related material: 0.63%
[1]; S4W: 4 weeks at 60° C./80% RH
  C.I quantitative: 17.8%
  Content (anhydride, as anhydride): 99.2%
  Moisture: 3.79%
  Purity: Individual related material: 0.14%
  Purity: Total related material: 0.58%
[2]; Initial
  Total related material: 0.56%
  Water: 3.93%
  Individual related material: 0.12
[2]; relative humidity 33%, 2 W
  Total related material: 0.53%
  Water: 3.70%
  Individual related material: 0.11
[2]; relative humidity 33%, 4 W
  Total related material: 0.55%
  Water: 3.94%
  Individual related material: 0.10
[2]; relative humidity 53%, 2 W
  Total related material: 0.66%
  Water: 3.62%
  Individual related material: 0.12
[2]; relative humidity 53%, 4 W
  Total related material: 0.59%
  Water: 3.96%
  Individual related material: 0.11
[2]; relative humidity 75%, 2 W
  Total related material: 0.58%
  Water: 3.78%
  Individual related material: 0.11
[2]; relative humidity 75%, 4 W
  Total related material: 0.61%
  Water: 3.93%
  Individual related material: 0.11
[2]; relative humidity 93%, 2 W
  Total related material: 0.54%
  Water: 3.71%
  Individual related material: 0.11
[2]; relative humidity 93%, 4 W
  Total related material: 0.62%
  Water: 3.94%
  Individual related material: 0.10
[3]
  Water solubility: 5900 µg/mL
[4]; Initial
  Individual related material: 0.12%
  Total related material: 0.56%
[4]; Solid, Control
  Individual related material: 0.11%
  Total related material: 0.44%
[4]; Solid, UV (200 W-h/m2)
  Individual related material: 0.11%
  Total related material: 0.6%
[4]; Solid, UV + Vis
  Individual related material: 0.12%
  Total related material: 0.91%
[4]; Solid, UV + Vis Control
  Individual related material: 0.12%
  Total related material: 0.48%
[4]; Solid, Vis (1.2M Lux-h)
  Individual related material: 0.11%
  Total related material: 0.69%

## C[C@@H]1CN(C(=O)CC#N)CC=C1c1cc(NC(=O)C2CC2)nc2[nH]ccc12 [Example 4, (S)—N-(4-(1-(2-cyanoacetyl)-3-methyl-1,2,3,6-tetrahydropyridin-4-yl)-1H-pyrrolo[2,3-b]pyridin-6-yl)cyclopropanecarboxamide]
[1]; Initial
  C.I quantitative: 40.3%
  Content (anhydride, as anhydride): 100.4%
  Moisture: 0.67%
  Purity: Individual related material: 0.13%
  Purity: Total related material: 1.13%
[1]; S2W: 2 weeks at 60° C./80% RH
  C.I quantitative: 40.3%
  Content (anhydride, as anhydride): 101.9%
  Purity: Individual related material: 0.23%
  Purity: Total related material: 1.32%
[1]; S4W: 4 weeks at 60° C./80% RH
  C.I quantitative: 40.6%
  Content (anhydride, as anhydride): 101.9%
  Moisture: 0.98%
  Purity: Individual related material: 0.30%
  Purity: Total related material: 1.31%
[2]; Initial
  Total related material: 1.13%
  Water: 0.67%
  Individual related material: 0.13
[2]; relative humidity 33%, 2 W
  Total related material: 1.1%
  Water: 0.56%
  Individual related material: 0.14
[2]; relative humidity 33%, 4 W
  Total related material: 1.07%
  Water: 0.54%
  Individual related material: 0.14
[2]; relative humidity 53%, 2 W
  Total related material: 1.18%
  Water: 0.80%
  Individual related material: 0.15
[2]; relative humidity 53%, 4 W
  Total related material: 1.04%
  Water: 0.65%
  Individual related material: 0.15
[2]; relative humidity 75%, 2 W
  Total related material: 1.18%
  Water: 1.44%
  Individual related material: 0.15
[2]; relative humidity 75%, 4 W
  Total related material: 1.18%
  Water: 1.02%
  Individual related material: 0.16
[2]; relative humidity 93%, 2 W
  Total related material: 1.17%
  Water: 2.03%
  Individual related material: 0.16
[2]; relative humidity 93%, 4 W
  Total related material: 1.15%
  Water: 1.72%
  Individual related material: 0.17
[3]
  Water solubility: 1900 µg/mL
[4]; Initial
  Individual related material: 0.13%
  Total related material: 1.13%
[4]; Solid, Control
  Individual related material: 0.14%
  Total related material: 0.14%
[4]; Solid, UV (200 W-h/m2)
  Individual related material: 0.13%
  Total related material: 0.27%
[4]; Solid, UV + Vis
  Individual related material: 0.13%
  Total related material: 0.72%
[4]; Solid, UV + Vis Control
  Individual related material: 0.14%
  Total related material: 0.14%
[4]; Solid, Vis (1.2M Lux-h)
  Individual related material: 0.13%
  Total related material: 0.68%

## C[C@@H]1CN(C(=O)CC#N)CC=C1c1cc(NC(=O)C2CC2)nc2[nH]ccc12 [Example 5, (S)—N-(4-(1-(2-cyanoacetyl)-3-methyl-1,2,3,6-tetrahydropyridin-4-yl)-1H-pyrrolo[2,3-b]pyridin-6-yl)cyclopropanecarboxamide]
[3]
  Water solubility: 4600 µg/mL
[4]; Initial
  Individual related material: 0.14%
  Total related material: 0.64%
[4]; Solid, Control
  Individual related material: 0.65%
  Total related material: 0.65%
[4]; Solid, UV (200 W-h/m2)
  Individual related material: 1%
  Total related material: 1%
[4]; Solid, UV + Vis
  Individual related material: 1.96%
  Total related material: 1.96%
[4]; Solid, UV + Vis Control
  Individual related material: 0.78%
  Total related material: 0.78%
[4]; Solid, Vis (1.2M Lux-h)
  Individual related material: 1.72%
  Total related material: 1.72%

## C[C@@H]1CN(C(=O)CC#N)CC=C1c1cc(NC(=O)C2CC2)nc2[nH]ccc12 [Example 6, (S)—N-(4-(1-(2-cyanoacetyl)-3-methyl-1,2,3,6-tetrahydropyridin-4-yl)-1H-pyrrolo[2,3-b]pyridin-6-yl)cyclopropanecarboxamide]
[3]
  Water solubility: 900 µg/mL
